# “Also recorded” adds a separate entry of the source.
# Assays:
# [1] = tested on: SW480 tumor xenografts; experiment: Mouse xenografts of SW480 cells; format: in vivo, nude mice; settings: for tumor volume: day 12 to day 21 (FIG. 9A); for tumor growth: mouse xenograft studies of human colon cancer, summary of FIGS. 7A-D, 8A-C, 9A-C
# Method: 5×10^5 of SW480 cells were injected subcutaneously into the flank area of 6-8-week-old nude mice. Tumor volume was measured by using an electronic caliper and calculated with the formula length×width^2×0.5, every 2 days. 12 days after inoculation, tumor bearing mice were administered Wnt inhibitors (dissolved in 10% DMSO+20% Cremophor EL+70% normal saline) via intraperitoneal injection for 5 days per week for 10 days at 10 mg/kg. Animal body weights were measured before drug treatments and at the end of the experiments. At the end of the experiments, animals were euthanized with carbon dioxide, followed by cervical dislocation. The tumors were dissected and weighed on the digital balance. We housed mice in pathogen-free facilities under 12-h light and 12-h dark cycle. The animal protocol and experimental procedures were approved by the Division of Laboratory Animal Medicine of UCLA and were in accordance with the US National Institute of Health guidelines.
# [2] = tested on: Wnt/β-catenin-mediated transcription; experiment: TCF-luciferase activity assay in 293T/Top/β-cat* cells; format: cell-based; settings: summary of FIGS. 5A, B (293T/Top cells + LiCl) and 6A-C (293T/Top/β-cat* cells)
# Method: 293T cells were maintained in DMEM medium containing 10% FBS and antibiotics (penicillin and streptomycin) at 37° C. in 5% CO2. Cells were stably infected with lentiviruses expressing the TopFlash reporter (293T/Top cells). The β-catenin mutant (β-cat*, the constitutively active mutant) construct was prepared using the retroviral expression vector by standard PCR. For viral transduction, retrovirus was obtained by co-trasfection of pQCXIP-β-cat* with packaging plasmids into 293T cells following the manufacturer's instructions. 293T/Top stable cells were seeded in 10 cm dish and incubated overnight. The next day cells were treated with retroviral particles. After 12 hours, the medium was replaced with fresh medium. 2 days post virus infection, the cells were selected with puromycin for 5 days to generate the 293T/Top/β-cat* stable cell line.
# 293 T/Top/β-cat* cells were plated at 40%-50% confluences in 12-well plate for 8 hours and then treated with Wnt inhibitors overnight. The luciferase activity of total cell lysates was measured using Luciferase Assay System (Promega). The related TCF-luciferase activity was normalized against the protein concentration of each cell lysate sample.
# [3] = SW480 xenografts, 10 mg/kg, day 12 to 22 (FIG. 7A)
# [4] = SW480 xenografts, 10 mg/kg, day 12 to 22 (FIG. 7B)
# [5] = SW480 xenografts, 10 mg/kg, day 12 to 22 (FIG. 7C)
# [6] = SW480 xenografts, 10 mg/kg, day 12 to 22 (FIG. 16A)
# [7] = SW480 xenografts, 10 mg/kg, day 12 to 22 (FIG. 16B)
# [8] = SW480 xenografts, 10 mg/kg, day 12 to 22 (FIG. 16C)
# [9] = SW480 xenografts, 10 mg/kg, day 12 to day 20 (FIG. 8B)
# [10] = SW480 xenografts, 10 mg/kg, day 12 to day 21 (FIG. 9B)
# [11] = SW480 xenografts, 10 mg/kg, day 12 to day 21 (FIG. 9C)
compound,measurement,setting,value
"CCN(CC)CCC(=O)N1C/C(=C\c2ccc(F)c(F)c2)C(=O)/C(=C/c2ccc(F)c(F)c2)C1 [JC049, 1-(3-(Diethylamino)propanoyl)-3,5-bis((E)-3,4-difluorobenzylidene)piperidin-4-one]",tumor volumes,[1]; [3],significantly reduced tumor volumes
same,tumor sizes at the end of treatment,[1]; [4],significantly reduced the size of tumors recovered
same,tumor weights at the end of treatment,[1]; [5],significantly reduced the weight of tumors recovered
same,actual tumor sizes at the end of treatment,[1]; [6],reduced the size of tumors recovered
same,tumor weights at the end of treatment,[1]; [7],significantly reduced the weight of tumors recovered
same,tumor volumes,[1]; [8],significantly reduced tumor volumes
same,tumor volumes,"[1]; SW480 xenografts, 10 mg/kg, day 12 to day 20 (FIG. 8A)",significantly reduced tumor volumes
same,actual tumor sizes at the end of treatment,[1]; [9],reduced the size of tumors recovered
same,actual tumor weights at the end of treatment,"[1]; SW480 xenografts, 10 mg/kg, day 12 to day 20 (FIG. 8C)",significantly reduced the weight of tumors recovered
same,tumor volume,"[1]; SW480 xenografts, 10 mg/kg",significantly reduce tumor volume
same,tumor sizes at the end of treatment,[1]; [10],significantly reduced the size of the tumors recovered
same,tumor weights at the end of treatment,[1]; [11],significantly reduce the weight of tumors recovered
same,tumor growth,[1],significantly inhibited the tumor growth; also recorded: showed the strongest inhibition
same,Wnt/β-catenin-mediated transcription,[2],significantly inhibited
"CN(C)CCC(=O)NC1C/C(=C\c2ccc(F)c(F)c2)C(=O)/C(=C/c2ccc(F)c(F)c2)C1 (centres unmarked) [JC070, N-(3,5-Bis((E)-3,4-difluorobenzylidene)-4-oxocyclohexyl)-3-(dimethylamino)propanamide]",tumor volumes,[1]; [3],significantly reduced tumor volumes
same,tumor sizes at the end of treatment,[1]; [4],significantly reduced the size of tumors recovered
same,tumor weights at the end of treatment,[1]; [5],significantly reduced the weight of tumors recovered
same,tumor growth,[1],"showed some inhibition, but did not reach significance"
same,Wnt/β-catenin-mediated transcription,[2],significantly inhibited
"O=C1/C(=C/c2ccc(F)c(F)c2)CN(C(=O)c2ccc(OCCN3CCCCC3)cc2)C/C1=C\c1ccc(F)c(F)c1 [JC082, 3,5-Bis((E)-3,4-difluorobenzylidene)-1-(4-(2-(piperidin-1-yl)ethoxy)benzoyl)piperidin-4-one]",tumor volume,"[1]; SW480 xenografts, 10 mg/kg",significantly reduce tumor volume
same,tumor sizes at the end of treatment,[1]; [10],significantly reduced the size of the tumors recovered
same,tumor weights at the end of treatment,[1]; [11],significantly reduce the weight of tumors recovered
same,tumor growth,[1],significantly inhibited the tumor growth
"CN(C)CCC(=O)N1C/C(=C\c2ccc(C(F)(F)F)cc2)C(=O)/C(=C/c2ccc(C(F)(F)F)cc2)C1 [JC022, 1-(3-(Dimethylamino)propanoyl)-3,5-bis((E)-4-(trifluoromethyl)benzylidene)piperidin-4-one]",Wnt/β-catenin-mediated transcription,[2],significantly inhibited
"CN(C)CCC(=O)N1C/C(=C\c2cc(Cl)cc(Cl)c2)C(=O)/C(=C/c2cc(Cl)cc(Cl)c2)C1 [JC028, 3,5-Bis((E)-3,5-dichlorobenzylidene)-1-(3-(dimethylamino)propanoyl)piperidin-4-one]",Wnt/β-catenin-mediated transcription,[2],significantly inhibited
"CN(C)CCC(=O)N1C/C(=C\c2ccc(F)c(F)c2)C(=O)/C(=C/c2ccc(F)c(F)c2)C1 [JC026, 3,5-Bis((E)-3,4-difluorobenzylidene)-1-(3-(dimethylamino)propanoyl)piperidin-4-one]",tumor volumes,[1]; [3],significantly reduced tumor volumes
same,tumor sizes at the end of treatment,[1]; [4],significantly reduced the size of tumors recovered
same,tumor weights at the end of treatment,[1]; [5],significantly reduced the weight of tumors recovered
same,tumor growth,[1],significantly inhibited the tumor growth
same,Wnt/β-catenin-mediated transcription,[2],significantly inhibited
"O=C1/C(=C/c2ccc(F)c(F)c2)CN(C(=O)CCC(=O)N2CCCC2)C/C1=C\c1ccc(F)c(F)c1 [JC072, 1-(3,5-Bis((E)-3,4-difluorobenzylidene)-4-oxopiperidin-1-yl)-4-(pyrrolidin-1-yl)butane-1,4-dione]",Wnt/β-catenin-mediated transcription,[2],significantly inhibited
"CN(C)CCOc1ccc(NC(=O)C2C/C(=C\c3cc(Cl)cc(Cl)c3)C(=O)/C(=C/c3cc(Cl)cc(Cl)c3)C2)cc1 (centres unmarked) [JC138, 3,5-Bis((E)-3,5-dichlorobenzylidene)-N-(4-(2-(dimethylamino)ethoxy)phenyl)-4-oxocyclohexane-1-carboxamide]",actual tumor sizes at the end of treatment,[1]; [6],reduced the size of tumors recovered
same,tumor weights at the end of treatment,[1]; [7],significantly reduced the weight of tumors recovered
same,tumor volumes,[1]; [8],significantly reduced tumor volumes
"CN(C)CCNC(=O)C1C/C(=C\c2cc(Cl)cc(Cl)c2)C(=O)/C(=C/c2cc(Cl)cc(Cl)c2)C1 (centres unmarked) [JC137, 3,5-Bis((E)-3,5-dichlorobenzylidene)-N-(2-(dimethylamino)ethyl)-4-oxocyclohexane-1-carboxamide]",actual tumor sizes at the end of treatment,[1]; [6],reduced the size of tumors recovered
"CN(C)CCC(=O)N1C/C(=C\c2ccccn2)C(=O)/C(=C/c2ccccn2)C1 [JC021, (3E,5E)-1-(3-(Dimethylamino)propanoyl)-3,5-bis(pyridin-2-ylmethylene)piperidin-4-one]",Wnt/β-catenin-mediated transcription,[2],significantly inhibited
"CN(C)CCC(=O)N1C/C(=C\c2cccc(C(F)(F)F)c2)C(=O)/C(=C/c2cccc(C(F)(F)F)c2)C1 [JC018, 1-(3-(Dimethylamino)propanoyl)-3,5-bis((E)-3-(trifluoromethyl)benzylidene)piperidin-4-one]",Wnt/β-catenin-mediated transcription,[2],significantly inhibited
"CCN(CC)CCS(=O)(=O)N1C/C(=C\c2ccc(F)c(F)c2)C(=O)/C(=C/c2ccc(F)c(F)c2)C1 [JC098, 1-((2-(Diethylamino)ethyl)sulfonyl)-3,5-bis((E)-3,4-difluorobenzylidene)piperidin-4-one]",actual tumor sizes at the end of treatment,[1]; [9],reduced the size of tumors recovered
"O=C1/C(=C/c2ccc(F)c(F)c2)CN(C(=O)CCN2CCCCC2)C/C1=C\c1ccc(F)c(F)c1 [JC048, 3,5-Bis((E)-3,4-difluorobenzylidene)-1-(3-(piperidin-1-yl)propanoyl)piperidin-4-one]",Wnt/β-catenin-mediated transcription,[2],significantly inhibited
"CN(C)CCS(=O)(=O)N1C/C(=C\c2ccc(F)c(F)c2)C(=O)/C(=C/c2ccc(F)c(F)c2)C1 [JC060, 3,5-Bis((E)-3,4-difluorobenzylidene)-1-((2-(dimethylamino)ethyl)sulfonyl)piperidin-4-one]",tumor volumes,[1]; [3],significantly reduced tumor volumes
same,tumor sizes at the end of treatment,[1]; [4],significantly reduced the size of tumors recovered
same,tumor weights at the end of treatment,[1]; [5],significantly reduced the weight of tumors recovered
same,tumor volume,"[1]; SW480 xenografts, 10 mg/kg",significantly reduce tumor volume
same,tumor sizes at the end of treatment,[1]; [10],significantly reduced the size of the tumors recovered
same,tumor weights at the end of treatment,[1]; [11],significantly reduce the weight of tumors recovered
same,tumor growth,[1],significantly inhibited the tumor growth
same,Wnt/β-catenin-mediated transcription,[2],significantly inhibited
"CN(C)CCC(=O)N1C/C(=C\c2ccc(Cl)c(Cl)c2)C(=O)/C(=C/c2ccc(Cl)c(Cl)c2)C1 [JC032, 3,5-Bis((E)-3,4-dichlorobenzylidene)-1-(3-(dimethylamino)propanoyl)piperidin-4-one]",Wnt/β-catenin-mediated transcription,[2],significantly inhibited
"CN(C)CCOc1ccc(C(=O)NC2C/C(=C\c3ccc(F)c(F)c3)C(=O)/C(=C/c3ccc(F)c(F)c3)C2)cc1 (centres unmarked) [JC081, N-(3,5-Bis((E)-3,4-difluorobenzylidene)-4-oxocyclohexyl)-4-(2-(dimethylamino)ethoxy)benzamide]",tumor volume,"[1]; SW480 xenografts, 10 mg/kg",significantly reduce tumor volume
same,tumor sizes at the end of treatment,[1]; [10],significantly reduced the size of the tumors recovered
same,tumor weights at the end of treatment,[1]; [11],significantly reduce the weight of tumors recovered
same,tumor growth,[1],significantly inhibited the tumor growth
same,Wnt/β-catenin-mediated transcription,[2],significantly inhibited

# — patent publication US12404243B2, “Inhibitors of the Wnt/beta-catenin pathway” (The Regents of the University of California, priority 2018, dated 2025)
